This experiment has as its system Brassica rapa subsp. oleifera. In words: Herbicidal activity against Brassica rapa subsp. oleifera seedling assessed as root growth inhibition at 1 x10 ' -4 M measured after 7 days. Format: functional. As to conditions: 168 h, read-out: GI.

For the molecule `O=C(O)CC(NC(=O)CF)c1ccco1` (racemic), the inhibition of growth at 100 µM turned out to be 43%.

Take `NC(CC(=O)O)c1ccco1` (racemic): the inhibition of growth at 100 µM turned out to be 16%.

As for `CC(=O)NC(Cc1ccco1)C(=O)O` (racemic), the inhibition of growth at 100 µM came to 19%.

Take `NC(Cc1ccco1)C(=O)O` (racemic): the inhibition of growth at 100 µM was found to be 7%.

As to `O=C(O)COc1ccc(Cl)cc1Cl` [2,4-DICHLOROPHENOXYACETIC ACID], the inhibition of growth at 100 µM came out at 100%.

Take `O=C(O)CC(NC(=O)CCl)c1ccco1` (racemic): the inhibition of growth at 100 µM amounted to 55%.

As for `CC(=O)NC(CC(=O)O)c1ccco1` (racemic), the inhibition of growth at 100 µM amounted to 22%.

In the case of `O=C(CF)NC(Cc1ccco1)C(=O)O` (racemic), the inhibition of growth at 100 µM stood at 90%.

For `O=C(CCl)NC(Cc1ccco1)C(=O)O` (racemic), the inhibition of growth at 100 µM is 51%.

The values above are taken from ChEMBL document CHEMBL3046120, “Synthesis and root growth-inhibitory activity of 2- and 3-(haloacetylamino)-3-(2-furyl)propanoic acids” (2003).
